What was measured:
[1] = target: Beta-3 adrenergic receptor (Homo sapiens, UniProt P13945); assay: DRUGMATRIX: Adrenergic beta3 radioligand binding (ligand: [125I] Cyanopindolol); format: cell membranes, HEK293, Membrane; details: hek293; Not Active = under 50% inhibition at 10 µM
[2] = target: T1, 5-hydroxytryptamine receptor 2C (Homo sapiens, UniProt P28335); assay: DRUGMATRIX: Serotonin (5-Hydroxytryptamine) 5-HT2C radioligand binding (ligand: [3H] Mesulergine); format: cell membranes, CHO-K1, Membrane; details: Not Active = under 50% inhibition at 10 µM; for Ki: read-out: Ki
T1 sequence (P28335 whole entry): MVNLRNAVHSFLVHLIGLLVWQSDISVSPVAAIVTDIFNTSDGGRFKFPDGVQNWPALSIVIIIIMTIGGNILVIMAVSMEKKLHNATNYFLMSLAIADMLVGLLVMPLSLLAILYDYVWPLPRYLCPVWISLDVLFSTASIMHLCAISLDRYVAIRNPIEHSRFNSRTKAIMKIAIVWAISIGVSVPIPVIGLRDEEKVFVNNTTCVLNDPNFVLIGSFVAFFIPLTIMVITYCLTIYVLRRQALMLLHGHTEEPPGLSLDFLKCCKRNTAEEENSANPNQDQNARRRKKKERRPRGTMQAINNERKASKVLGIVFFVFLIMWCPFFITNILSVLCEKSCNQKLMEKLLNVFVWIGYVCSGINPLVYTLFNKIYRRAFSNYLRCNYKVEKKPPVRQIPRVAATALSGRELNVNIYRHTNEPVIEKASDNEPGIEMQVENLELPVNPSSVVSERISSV

[3] = DRUGMATRIX: Serotonin (5-Hydroxytryptamine) 5-HT3 radioligand binding (ligand: [3H] GR-65630); format: cell membranes, Membrane; details: hek293; Not Active = under 50% inhibition at 10 µM
[4] = DRUGMATRIX: GABAA, Muscimol, Central radioligand binding (ligand: [3H] Muscimol); format: cell membranes, Rattus norvegicus, Wistar, Brain, Membrane; details: Not Active = under 50% inhibition at 10 µM
[5] = target: T2, Muscarinic acetylcholine receptor M5 (Homo sapiens, UniProt P08912); format: cell membranes, CHO-K1, Membrane; also: in other assays of this panel Not Active means under 50% inhibition at 10 µM
T2 sequence (P08912 whole entry): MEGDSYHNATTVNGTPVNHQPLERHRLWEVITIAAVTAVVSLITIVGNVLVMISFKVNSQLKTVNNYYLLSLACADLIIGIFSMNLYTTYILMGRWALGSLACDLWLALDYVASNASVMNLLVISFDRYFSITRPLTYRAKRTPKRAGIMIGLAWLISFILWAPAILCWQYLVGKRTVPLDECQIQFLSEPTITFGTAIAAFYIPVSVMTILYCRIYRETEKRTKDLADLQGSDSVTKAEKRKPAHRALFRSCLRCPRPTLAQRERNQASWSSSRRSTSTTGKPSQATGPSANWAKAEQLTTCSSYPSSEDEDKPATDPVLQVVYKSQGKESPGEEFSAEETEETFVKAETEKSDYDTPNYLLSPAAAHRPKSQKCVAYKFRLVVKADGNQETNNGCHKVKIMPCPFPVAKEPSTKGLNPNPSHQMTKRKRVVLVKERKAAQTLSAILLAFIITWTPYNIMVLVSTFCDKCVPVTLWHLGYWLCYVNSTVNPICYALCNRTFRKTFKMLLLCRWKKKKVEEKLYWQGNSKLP

[6] = target: Receptor tyrosine-protein kinase erbB-2 (Homo sapiens, UniProt P04626); assay: biochemical; format: cell-based, Insect cells; details: insect cells;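 also: inhibition of HER2 kinase enzyme activity, measured with Poly(Glu:Tyr) as the phosphorylation substrate; in other assays of this panel Not Active means under 50% inhibition at 10 µM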
Receptor tyrosine-protein kinase erbB-2, sequence (P04626 whole entry): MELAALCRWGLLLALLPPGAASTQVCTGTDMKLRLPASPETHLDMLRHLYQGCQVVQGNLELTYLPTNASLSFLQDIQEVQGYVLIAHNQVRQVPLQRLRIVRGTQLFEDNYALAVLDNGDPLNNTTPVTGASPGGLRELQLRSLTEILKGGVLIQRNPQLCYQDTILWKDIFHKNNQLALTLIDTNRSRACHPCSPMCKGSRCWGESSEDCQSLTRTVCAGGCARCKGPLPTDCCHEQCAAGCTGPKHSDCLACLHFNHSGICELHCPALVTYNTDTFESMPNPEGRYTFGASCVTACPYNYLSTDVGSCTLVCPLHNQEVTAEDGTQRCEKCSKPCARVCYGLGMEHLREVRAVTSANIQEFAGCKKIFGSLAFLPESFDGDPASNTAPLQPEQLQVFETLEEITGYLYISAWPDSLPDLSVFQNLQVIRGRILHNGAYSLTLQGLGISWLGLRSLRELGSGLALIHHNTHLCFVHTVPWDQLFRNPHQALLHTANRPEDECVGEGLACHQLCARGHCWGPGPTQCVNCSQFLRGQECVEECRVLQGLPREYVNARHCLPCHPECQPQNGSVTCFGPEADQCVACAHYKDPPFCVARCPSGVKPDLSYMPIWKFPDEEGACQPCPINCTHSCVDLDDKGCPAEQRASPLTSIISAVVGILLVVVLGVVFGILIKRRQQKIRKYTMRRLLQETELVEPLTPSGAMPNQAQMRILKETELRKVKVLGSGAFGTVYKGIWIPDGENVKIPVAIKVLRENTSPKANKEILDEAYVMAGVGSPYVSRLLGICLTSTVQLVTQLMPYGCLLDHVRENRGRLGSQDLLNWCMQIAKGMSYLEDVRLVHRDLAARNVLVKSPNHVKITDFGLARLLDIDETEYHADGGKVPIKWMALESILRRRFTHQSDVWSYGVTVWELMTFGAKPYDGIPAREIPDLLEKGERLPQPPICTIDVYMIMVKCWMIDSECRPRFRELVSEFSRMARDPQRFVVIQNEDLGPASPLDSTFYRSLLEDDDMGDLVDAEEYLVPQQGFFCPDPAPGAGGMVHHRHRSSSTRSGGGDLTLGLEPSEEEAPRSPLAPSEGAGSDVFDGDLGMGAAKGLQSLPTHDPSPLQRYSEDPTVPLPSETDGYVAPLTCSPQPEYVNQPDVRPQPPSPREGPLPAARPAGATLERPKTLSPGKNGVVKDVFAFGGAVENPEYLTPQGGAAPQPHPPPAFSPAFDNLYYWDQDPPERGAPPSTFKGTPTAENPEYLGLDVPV

Beta-3 adrenergic receptor, sequence (P13945 whole entry): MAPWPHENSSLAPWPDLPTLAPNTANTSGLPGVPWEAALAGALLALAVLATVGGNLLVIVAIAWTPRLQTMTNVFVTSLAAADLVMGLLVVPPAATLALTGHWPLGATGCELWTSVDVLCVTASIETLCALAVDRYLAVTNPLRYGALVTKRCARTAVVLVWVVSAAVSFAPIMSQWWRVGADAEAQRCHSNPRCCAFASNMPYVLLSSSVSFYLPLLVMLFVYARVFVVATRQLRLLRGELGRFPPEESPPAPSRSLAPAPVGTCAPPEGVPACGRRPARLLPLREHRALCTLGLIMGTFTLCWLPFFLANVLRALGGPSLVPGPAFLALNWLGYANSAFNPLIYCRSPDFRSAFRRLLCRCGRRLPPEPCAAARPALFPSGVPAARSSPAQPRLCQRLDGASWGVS

O=C1CN=C(c2ccccc2Cl)c2cc([N+](=O)[O-])ccc2N1 [CLONAZEPAM]
IC50 [1]: Not Active
IC50 ([2]; cho-k1): Not Active
IC50 [3]: Not Active
Ki [3]: Not Active
IC50 [4]: Not Active
Ki [4]: Not Active
IC50 ([5]; cho-k1): Not Active
IC50 [6]: Not Active

C[C@@H](CO)NC(=O)[C@@H]1C=C2c3cccc4[nH]cc(c34)C[C@H]2N(C)C1 [ERGONOVINE]
IC50 [1]: Not Active
IC50 ([2]; read-out: IC50): 21 nM
Ki [2]: 11 nM
IC50 [3]: Not Active
Ki [3]: Not Active
IC50 [4]: Not Active
Ki [4]: Not Active
IC50 ([5]; cho-k1): Not Active
IC50 [6]: Not Active

CCn1cc(C(=O)O)c(=O)c2cnc(N3CCCC3)nc21 [PIROMIDIC ACID]
IC50 [1]: Not Active
IC50 ([2]; cho-k1): Not Active
IC50 [3]: Not Active
Ki [3]: Not Active
IC50 [4]: Not Active
Ki [4]: Not Active
IC50 ([5]; cho-k1): Not Active
IC50 [6]: Not Active

C[C@@H]1C[C@H]2[C@@H]3CCC4=CC(=O)C=C[C@]4(C)[C@@]3(F)[C@@H](O)C[C@]2(C)[C@H]1C(=O)CO [DESOXIMETASONE]
IC50 [1]: Not Active
IC50 ([2]; cho-k1): Not Active
IC50 [3]: Not Active
Ki [3]: Not Active
IC50 [4]: Not Active
Ki [4]: Not Active
IC50 ([5]; cho-k1): Not Active
IC50 [6]: Not Active

CN(C)CC[C@@H](c1ccc(Cl)cc1)c1ccccn1 [DEXCHLORPHENIRAMINE]
IC50 [1]: Not Active
IC50 ([2]; read-out: IC50): 2320 nM
Ki [2]: 1220 nM
IC50 [3]: Not Active
Ki [3]: Not Active
IC50 [4]: Not Active
Ki [4]: Not Active
IC50 ([5]; read-out: IC50): 1040 nM
Ki ([5]; read-out: Ki): 749 nM
IC50 [6]: Not Active
